Consider three compounds from patent US20070066601A1, “Combination of a serotonin reuptake inhibitor and a histamine 3 receptor antagonist, inverse agonist or partial agonist” (H. LUNDBECK A/S, priority 2003, published 2007).

The test system of one test is cortex synaptosomes. The following applies: cited from earlier work.
Test [1] has as its system serotonin levels in ventral hippocampus. As to the kind of experiment: Microdialysis of brain serotonin levels in rats. The following applies: for effect on 5-HT levels when compared to citalopram administration alone: P<0.0001. Format: in vivo, rat. As for the experimental part:
Male albino rats of a Wistar-derived strain (285-320 g; Harlan, Zeist, The Netherlands) were used for the experiments. Upon surgery, rats were housed individually in plastic cages (35×35×40 cm), and had free access to food and water. Animals were kept on a 12 h light schedule (light on 7:00 a.m.). The experiments are concordant with the declarations of Helsinki and were approved by the animal care committee of the faculty of mathematics and natural science of the University of Groningen.
Microdialysis of brain serotonin levels was performed using home made I-shaped probes, made of polyacrylonitrile/sodium methyl sulfonate copolymer dialysis fiber (i.d. 220 μm, o.d. 300 μm, AN 69, Hospal, Italy). Preceding surgery rats were anaesthetised using isoflurane (O2/N2O; 300/300 ml/min). Lidocaine-HCl, 10 % (m/v) was used for local anaesthesia. Rats were placed in a stereotaxic frame (Kopf, USA), and probes were inserted into Ventral Hippcampus (V. Hippo, L +4.8 mm, […], V: −8.0 mm) and median prefrontal cortex (PFC, L −0.9 mm; AP: +3.5 mm relative to bregma; V: −6.0 mm (Paxinos and Watson, 1982). After insertion, probes were secured with dental cement.
Rats were allowed to recover for at least 24 h. Probes were perfused with artificial cerebrospinal fluid containing 147 mM NaCl, 3.0 mM KCl, 1.2 mM CaCl2, and 1.2 mM MgCl2, at a flow-rate of 1.5 μl/min (Harvard apparatus, South Natick, Mass., USA). 15 minute microdialysis samples were collected in HPLC vials containing 7.5 μl 0.02 M acetic acid for serotonin analysis.
Twenty-μl microdialysate samples were injected via an autoinjector (CMA/200 refrigerated microsampler, CMA, Sweden) onto a 100×2.0 mm C18 Hypersil 3 μm column (Bester, Amstelveen, the Netherlands) and separated with a mobile phase consisting of 5 g/L di-ammoniumsulfate, 500 mg/L EDTA, 50 mg/L heptane sulphonic acid, 4% methanol v/v, and 30 μI/L of triethylamine, pH 4.65 at a flow of 0.4 ml/min (Shimadzu LC-10 AD). 5-HT was detected amperometrically at a glassy carbon electrode at 500 mV vs Ag/AgCl (Antec Leyden, Leiden, The Netherlands). The detection limit was 0.5 fmol 5-HT per 20 μl sample (signal to noise ratio 3).
Four consecutive microdialysis samples with less then 20% variation were taken as control and set at 100%. Data are presented as percentages of control level (mean±S.E.M.) in time. Statistical analysis was performed using Sigmastat for Windows (SPSS, Jandel Corporation). Treatments were compared versus controls using two way analysis of variance (ANOVA) for repeated measurements, followed by Student Newman Keuls test. Level of significance level was set at p<0.05.

As for `C[C@@H](N)Cc1cnc[nH]1` [R-(alphe)-methylhistamine], the “effect on electrical evoked release of tritiated serotonin” value in the test on cortex synaptosomes is listed as “inhibited”.
As for `O=C(c1ccc(OCCCc2cnc[nH]2)cc1)C1CC1` [ciproxifan, Ciproxifan], the “effects on serotonin levels in ventral hippocampus” value in test [1] (ciproxifan alone, 15 mg/kg s.c., P=0.54 n.s.) was “did not induce any effects”. The “effect on 5-HT levels when compared to citalopram administration alone” value in test [1] (co-administration of citalopram 10 μmol/kg with ciproxifan 15 mg/kg s.c.) is on record as “augmented effect”.
Consider `S=C(NC1CCCCC1)N1CCC(c2cnc[nH]2)CC1` [thioperamide, Thioperamide], for which the “effect on the inhibition of evoked serotonin release by R-(alphe)-methylhistamine” value in the test on cortex synaptosomes is listed as “reversed”. Further, the “effect on 5-HT levels when compared to citalopram administration alone” value in test [1] (co-administration of citalopram 10 μmol/kg with thioperamide 5 mg/kg s.c.) is given as “augmented effect”. For the same compound, the “effects on serotonin levels in ventral hippocampus” value in test [1] (thioperamide alone, 5 mg/kg s.c., P=0.44 n.s.) is “did not induce any effects”.
